Source: patent US20190015423A1, “REGULATION OF GENE EXPRESSION BY MODULATING PRIMARY CILIA LENGTH” (THE TRUSTEES OF COLUMBIA UNIVERSITY IN THE CITY OF NEW YORK, priority 2016, published 2019)
Entries after “also recorded” stand apart in the source; their conditions may differ. Where a name gives a salt, the structure may show the parent alone. Read-outs that look alike come from different tables or passages of the source.

Columns and labels:
C57Bl/6 mice = assay: Load-induced bone formation: compressive ulnar loading and dynamic histomorphometry; format: in vivo
Description: All data are shown in reference to the non-loaded contralateral limb as control. […] On day 4-6 the mice were subjected to daily axial compressive ulnar loading. Mice were placed under isoflurane anesthesia and forelimbs were placed between two loading cups controlled by an electromagnetic loading system with feedback control (Bose, ELF 3220). An initial 0.1 N preload was applied, followed by 3 N of cyclic compression applied with a 2 Hz sine wave for 120 cycles, generating a strain gage verified average peak deformation of 1895 μstrain. On day 8, mice were subcutaneously injected with calcein (10 mg/kg) and alizarin red (70 mg/kg) on day 12. Mice were euthanized on day 18 and prepared for dynamic histomorphometric analysis.
Compressive ulnar loading was applied on days 5-7 to mechanically stimulate bone (3N at 2 Hz for 120 cycles) [9].
On the final three days of drug or control injection, animals were also subjected to compressive ulnar load at a peak load of 3 N using a 2 Hz sine wave for 120 cycles, as previously described (Temiyasathit, S. et al. PLoS One 7, (2012); Lee, K. L. et al. FASEB J. 28, 1157-1165 (2014)). Contralateral limbs served as a non-loaded control. 2 days following load, mice were treated with 10 mg/kg calcein (Sigma), and 4 days later 70 mg/kg alizarin (Sigma), with mice being sacrificed 6 days later.
Dynamic histomorphometry was performed as previously described, measuring the amount and separation of calcein and alizarin labels to quantify mineralizing surface (rMS/BS), mineral apposition rate (rMAR), and bone formation rate (rBFR/BS) relative to non-loaded controls (Temiyasathit, S. et al. PLoS One 7, (2012); Lee, K. L. et al. FASEB J. 28, 1157-1165 (2014)). Left and right ulnae were dissected and preserved in ethanol. Samples were then infiltrated with methyl methacrylate, and embedded in methyl methacrylate and benzoyl peroxide. Transverse sections of the ulnar midshaft were imaged on a laser scanning confocal microscope (Olympus Fluoview FV1000). Measurements of outer bone perimeter (OP), single label perimeter (SL), double label perimeter (DL), and double label area (DA) were made in ImageJ. The mineralizing surface relative to outer bone surface (MS/BS), mineral apposition rate (MAR), and bone formation rate (BFS/BS) were calculated as:
Relative measurements—rMS/BS, rMAR, rBFR/BS—were determined by subtracting non-loaded from loaded ulnae to display differences due to mechanical load.

MC3T3 osteoblasts = assay: Flow-induced paracrine signaling: conditioned media of treated osteocytes on osteoblasts (OPN mRNA); format: cell-based; settings: osteocytes treated with tubastatin 5 μM 3-4 hours; 12 hrs flow; osteoblasts cultured 24 hours
MLO-Y4 osteocytes [1] = assay: Primary cilia length and incidence by immunocytochemistry (acetylated α-tubulin); format: cell-based
Description: MLO-Y4 osteocytes were cultured on collagen-coated dishes in MEMα (Life Tech) supplemented with 5% fetal bovine serum, 5% calf serum, and 1% penicillin/streptomycin at 37° C. and 5% CO2. […] These agents, or their vehicle control, were applied to cells for 16 h prior to experimentation. MTT, (methylthiazolyldiphenyl-tetrazolium bromide) assay (Sigma) was performed according to manufacturer's protocol to assess cell viability during drug treatments. Phase contrast microscopy with an Olympus CKX41 inverted microscope and 40× objective was used to assess cell morphology.
For primary cilia imaging and analysis, cells cultured on collagen I-coated glass were fixed in 10% formalin and treated with anti-acetylated α-tubulin primary antibody, 1:1, from a C3B9 hybridoma cell line (Sigma). Cilia were visualised with Alexa-Fluor 488 secondary antibody, 1:1000 (Life Technologies) and imaged with a 100× oil objective on an Olympus Fluoview FV1000 confocal microscope. Nuclei were stained with DAPI (Life Technologies). Cilia length was analyzed using Image J software.
Gene silencing was performed by siRNA mediated knockdown and compared to scramble siRNA control (Life Technologies). […]

MLO-Y4 osteocytes [2] = assay: Oscillatory fluid flow-induced mRNA expression (COX-2, OPN, AC6), flow vs no flow; format: cell-based
MLO-Y4 osteocytes [3] = assay: High-throughput drug screening of primary cilia length and incidence; format: cell-based
In short: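 MLO-Y4 osteocytes on collagen I, treated 16 h with 10 μM compound in triplicate, fixed, stained for acetylated α-tubulin and Hoechst, imaged at 40× (4 fields/well); cilia length and incidence normalized to plate DMSO controls. Hits ranked by SD from population mean, requiring ≥40% viability by nuclei count.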

[4] = AC6 siRNA, mechanically stimulated cells
[5] = 10 μM, 16 hours, triplicate, normalized to vehicle control, standard deviation away from the population average

Compound | Average Length SD Away (MLO-Y4 osteocytes [3]; [5]) [SD] | Average Incidence SD Away (MLO-Y4 osteocytes [3]; [5]) [SD] | also measured
CN1CCc2c(c3ccccc3n2Cc2ccc(C(=O)NO)cc2)C1 [tubastatin, tubastatin A] |  |  | relative bone formation rate (rBFR) (C57Bl/6 mice; tubastatin 5 mg/kg s.c. 6 consecutive days, load day 4-6, n=3, preliminary study): did not elicit a marked change; relative bone formation rate (rBFR) (C57Bl/6 mice; tubastatin 5 mg/kg s.c. 6 consecutive days, load day 4-6, n=3, preliminary study, listed as Tubastatin): slightly decreased; decrease in active mineralizing surface (rMS/BS) (C57Bl/6 mice; tubastatin 5 mg/kg s.c. 6 consecutive days, data not shown): over 50%; osteoblast osteogenic gene (osteopontin, OPN) expression after conditioned media from flow-stimulated osteocytes (MC3T3 osteoblasts): decreased; also recorded: impaired
IFT88 siRNA: siRNA 5′-CCAGAAACAGATGAGGACGACCTTT-3′ (SEQ ID NO:1) (listed as DNA, chemistry not given here) |  |  | primary cilia incidence compared to scramble control (MLO-Y4 osteocytes [1]; 20 μM IFT88 siRNA, 48 hours): lower incidence; also recorded: decreases; primary cilia length compared to scramble control (MLO-Y4 osteocytes [1]; 20 μM IFT88 siRNA, 48 hours): significantly shorter; also recorded: decreased; decrease of flow-induced OPN mRNA expression compared to scramble control (MLO-Y4 osteocytes [2]; IFT88 siRNA, flow 1 h): 43%±2%
AC6 siRNA: siRNA 5′-CCTGCCACCTACAACAGCTCAATTA-3′ (SEQ ID NO:2) (listed as DNA, chemistry not given here) |  |  | cilia incidence (MLO-Y4 osteocytes [1]; AC6 siRNA): no effect; also recorded: Neither AC6 siRNA nor fenoldopam alter cilia incidence; decrease in cilia length (MLO-Y4 osteocytes [1]; AC6 siRNA): 10%±3%; decrease of AC6 expression (MLO-Y4 osteocytes [2]; [4]): 50%±3%; decrease of flow-induced OPN expression (MLO-Y4 osteocytes [2]; [4]): 30%±3%
CC1=C(/C=C/C(C)=C/C=C/C(C)=C/C(=O)Nc2ccc(O)cc2)C(C)(C)CCC1 [Retinoic acid p-hydroxyanilide] | 2.487 |  | 
Cc1cccc([C@H](C)c2cnc[nH]2)c1C [Dexmedetomidine HCl (Precedex), Dexmedetomidine HCl] |  | 2.924 | 
CCCCC(=O)N(Cc1ccc(-c2ccccc2-c2nnn[nH]2)cc1)[C@H](C(=O)O)C(C)C [Valsartan (Diovan), Valsartan] |  | 1.648 | 
CC(C)NCC(O)COc1ccc(CCOCC2CC2)cc1 (centres unmarked) [Betaxolol hydrochloride (Betoptic), Betaxolol hydrochloride] |  | 1.631 | 
O=c1[nH]cc(F)c(=O)[nH]1 [5-fluorouracil] | 1.775 |  | 
CCCc1cc(=O)[nH]c(=S)[nH]1 [Propylthiouracil] |  | 1.659 | 
CCCC(=O)[O-].[Na+] [Sodium butyrate] |  | 2.3981 | 
COc1cc2c(cc1OC)C1C(=O)c3c(cc4c(c3O)C=CC(C)(C)O4)OC1CO2 (stereo not drawn) [beta-TOXICAROL] | 1.664 |  | 
Cc1cc(Cl)ccc1OCCCC(=O)NO [Droxinostat] | 2.91 | 2.26 | 
(S)-(+)-Niguldipine hydrochloride |  |  | Average Length SD Away (MLO-Y4 osteocytes [3]): 2.267 SD
CN(Cc1cc(Br)cc(Br)c1N)C1CCCCC1 [Bromhexine HCl] | 1.547 | 1.882 | 
O=C([O-])c1ccccc1-c1c2cc(Br)c(=O)cc-2oc2[c]([Hg+])c([O-])c(Br)cc12.[Na+].[Na+].[OH-] [Merbromin] | 5.067 |  | 
CC[C@]1(O)C[C@@H]2CN(CCc3c([nH]c4ccccc34)[C@@](C(=O)OC)(c3cc4c(cc3OC)N(C)[C@H]3[C@@](O)(C(=O)OC)[C@H](OC(C)=O)[C@]5(CC)C=CCN6CC[C@]43[C@@H]65)C2)C1 [Vinblastine] | 1.771 | 3.124 | 
CCCCCCCCCC(=O)O[C@@H]1[C@@H](C)[C@@]2(O)[C@@H](C=C(CO)C[C@@]3(O)C(=O)C(C)=C[C@@H]23)[C@@H]2C(C)(C)[C@]12OC(=O)CCCCCCCCC [4αPDD] |  |  | relative bone formation rate (rBFR/BS) compared to vehicle control (C57Bl/6 mice; 4αPDD 250 μg/kg s.c. 6 consecutive days, load day 4-6, n=3, preliminary study): did not promote a significant increase
Cc1cc(/C=C/c2ccc3cc(N(C)C)ccc3[n+]2C)c(C)n1-c1ccccc1 [PYRVINIUM PAMOATE] | 2.834 |  | 
